Our source for the IC50 values is US12577217B2, “15-PGDH inhibitor” (KYORIN Pharmaceutical Co., Ltd., priority 2019, dated 2026).

The target of this test is T1, recombinant human 15-PGDH (Homo sapiens, UniProt P15428).
T1 construct: purchased R&D Systems
T1 sequence (P15428 1-266): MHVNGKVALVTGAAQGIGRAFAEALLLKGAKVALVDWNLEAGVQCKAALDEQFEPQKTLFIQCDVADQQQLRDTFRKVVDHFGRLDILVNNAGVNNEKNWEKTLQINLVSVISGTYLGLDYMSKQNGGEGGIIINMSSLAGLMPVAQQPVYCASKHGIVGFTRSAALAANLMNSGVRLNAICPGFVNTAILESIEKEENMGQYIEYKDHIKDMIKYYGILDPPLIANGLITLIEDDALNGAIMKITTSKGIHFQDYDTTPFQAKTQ
The experiment in a line: 15-PGDH enzyme inhibition test. The test is classed as biochemical. The conditions noted are these: 4 nM recombinant human 15-PGDH, 30 μM PGE2, 1 mM NAD+, 60 minutes after starting the reaction; read-out: IC50 Value. In a few lines: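 Fluorescence (excitation 340 nm, emission 440 nm) measured 60 min after adding 1 mM NAD+ and 30 μM PGE2 to 4 nM recombinant human 15-PGDH, which had stood 12 min at room temperature with compound in pH 8.0 Tris-HCl buffer. Concentration-response curves yield IC50, binned into potency categories.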

The IC50 is the point on the concentration scale where inhibition reaches its midpoint.

Structures are written as SMILES.

Consider `CN1Cc2cc(N3CCOc4cc(C(=O)N5CCOCC5)cnc43)ccc2C1=O` [Example 8-188], for which the IC50 was less than 10 nM. In the case of `CN1CCN(C(=O)c2cnc3c(c2)OCCN3c2ccc3c(c2)CN(C)C3=O)CC1` [Example 8-189] it was less than 10 nM; in that of `CC(=O)N1CCN(C(=O)c2cnc3c(c2)OCCN3c2ccc3c(c2)CN(C)C3=O)CC1` [Example 8-190], more than 100 nM; in that of `CN1Cc2cc(N3CCOc4cc(C(=O)N5CC=CCC5)cnc43)ccc2C1=O` [Example 8-191], less than 10 nM. Consider `CN1Cc2cc(N3CCOc4cc(C(=O)N5CCc6ccccc6C5)cnc43)ccc2C1=O` [Example 8-192], for which the IC50 is less than 10 nM. Take `CN1Cc2cc(N3CCOc4cc(C(=O)N5Cc6ccccc6C5)cnc43)ccc2C1=O` [Example 8-193]: the IC50 is less than 10 nM. As for `CC1CCN(C(=O)c2cnc3c(c2)OCCN3c2ccc3c(c2)CN(C)C3=O)CC1` [Example 8-194], the figure is less than 10 nM; as for `C[C@@H]1CCCCN1C(=O)c1cnc2c(c1)OCCN2c1ccc2c(c1)CN(C)C2=O` [Example 8-195], less than 10 nM; as for `C[C@H]1CCCCN1C(=O)c1cnc2c(c1)OCCN2c1ccc2c(c1)CN(C)C2=O` [Example 8-196], less than 10 nM. `C[C@@H]1CCCN(C(=O)c2cnc3c(c2)OCCN3c2ccc3c(c2)CN(C)C3=O)C1` [Example 8-197]: the IC50 is less than 10 nM. For `C[C@H]1CCCN(C(=O)c2cnc3c(c2)OCCN3c2ccc3c(c2)CN(C)C3=O)C1` [Example 8-198], the IC50 is less than 10 nM. In the case of `CN1Cc2cc(N3CCOc4cc(C(=O)N5CCC[C@@H](F)C5)cnc43)ccc2C1=O` [Example 8-199], the IC50 was less than 10 nM. As for `CN1Cc2cc(N3CCOc4cc(C(=O)N5CCC[C@H](F)C5)cnc43)ccc2C1=O` [Example 8-200], the IC50 is less than 10 nM. Turning to `CN1Cc2cc(N3CCOc4cc(C(=O)N5CCCC(F)(F)C5)cnc43)ccc2C1=O` [Example 8-201], the IC50 is less than 10 nM. In the case of `CN1Cc2cc(N3CCOc4cc(C(=O)N5CCC(F)CC5)cnc43)ccc2C1=O` [Example 8-202], the IC50 was less than 10 nM. On to `CN1Cc2cc(N3CCOc4cc(C(=O)N5CCC[C@@H](CF)C5)cnc43)ccc2C1=O` [Example 8-203], for which the IC50 was less than 10 nM. With `CN1Cc2cc(N3CCOc4cc(C(=O)N5CCC[C@H](CF)C5)cnc43)ccc2C1=O` [Example 8-204], the IC50 is less than 10 nM. As for `CN1Cc2cc(N3CCOc4cc(C(=O)N5CCC[C@@H](C(F)F)C5)cnc43)ccc2C1=O` [Example 8-205], the figure is less than 10 nM; as for `CN1Cc2cc(N3CCOc4cc(C(=O)N5CCC[C@H](C(F)F)C5)cnc43)ccc2C1=O` [Example 8-206], less than 10 nM. For the compound `CN1Cc2cc(N3CCOc4cc(C(=O)N5CCC[C@@H](C(F)(F)F)C5)cnc43)ccc2C1=O` [Example 8-207], the IC50 was less than 10 nM. As for `CN1Cc2cc(N3CCOc4cc(C(=O)N5CCC[C@H](C(F)(F)F)C5)cnc43)ccc2C1=O` [Example 8-208], the figure is less than 10 nM; as for `CN1Cc2cc(N3CCOc4cc(C(=O)N5CCCC(C)(F)C5)cnc43)ccc2C1=O` (centres unmarked) [Example 8-209], less than 10 nM. As for `CC1CN(C(=O)c2cnc3c(c2)OCCN3c2ccc3c(c2)CN(C)C3=O)CCC1(F)F` (centres unmarked) [Example 8-210], the figure is less than 10 nM; as for `CCn1nc2cc(N3CCOc4cc(C(=O)N5CCC(F)(F)CC5)cnc43)ccn2c1=O` [Example 8-211], less than 10 nM; as for `CCN1Cc2cc(N3CCOc4cc(C(=O)N5CCC(F)(F)CC5)cnc43)ccc2C1=O` [Example 8-212], less than 10 nM. For `CCn1oc2cc(N3CCOc4cc(C(=O)N5CCCCC5)cnc43)ccc2c1=O` [Example 8-213], the IC50 was less than 10 nM. For the compound `CCn1oc2cc(N3CCOc4cc(C(=O)N5CCC(F)(F)CC5)cnc43)ccc2c1=O` [Example 8-214], the IC50 was less than 10 nM.

As to `CCOc1noc2cc(N3CCOc4cc(C(=O)N5CCCCC5)cnc43)ccc12` [Example 8-215], the IC50 was less than 10 nM. As for `CCOc1noc2cc(N3CCOc4cc(C(=O)N5CCC(F)(F)CC5)cnc43)ccc12` [Example 8-216], the figure is less than 10 nM. `CCn1nc2cc(N3CCOc4cc(C(=O)N5CC=CCC5)cnc43)ccn2c1=O` [Example 8-217]: the IC50 was less than 10 nM. `CCn1nc2cc(N3CCOc4cc(C(=O)N5CCCCC56COC6)cnc43)ccn2c1=O` [Example 8-218]: the IC50 is more than 100 nM. Take `CCn1nc2cc(N3CCOc4cc(C(=O)N5CCN(C(C)=O)CC5)cnc43)ccn2c1=O` [Example 8-219]: the half-inhibitory concentration (IC50) was more than 100 nM. Take `CCn1nc2cc(N3CCOc4cc(C(=O)N5CCN(C(=O)OC(C)(C)C)CC5)cnc43)ccn2c1=O` [Example 8-220]: the IC50 was more than 100 nM.

For `CCn1nc2cc(N3CCOc4cc(C(=O)N5CCN(C)C(=O)C5)cnc43)ccn2c1=O` [Example 8-221], the IC50 is more than 100 nM. As for `Cn1nc2cc(N3CCOc4cc(C(=O)N5CCCCC5)sc43)ccn2c1=O` [Example 8-222], the figure is less than 10 nM; as for `Cn1nc2cc(N3CCOc4cc(C(=O)N5CCC(F)(F)CC5)sc43)ccn2c1=O` [Example 8-223], 10 to 100 nM.

As for `Cn1nc2cc(N3CCOc4cc(C(=O)N5CCCCCCC5)sc43)ccn2c1=O` [Example 8-224], the IC50 lay in the range of 10 to 100 nM. As for `Cn1nc2cc(N3CCOc4cc(C(=O)N5CCOCC5)cnc43)ccn2c1=O` [Example 8-225], the figure is 10 to 100 nM. In the case of `CN1CCN(C(=O)c2cnc3c(c2)OCCN3c2ccn3c(=O)n(C)nc3c2)CC1` [Example 8-226], the IC50 was 10 to 100 nM. As for `Cn1nc2cc(N3CCOc4cc(C(=O)N5CCC[C@H]5C(=O)OC(C)(C)C)cnc43)ccn2c1=O` [Example 8-227], the IC50 was more than 100 nM.

Turning to `Cn1nc2cc(N3CCOc4cc(C(=O)N5CCC[C@@H]5C(=O)OC(C)(C)C)cnc43)ccn2c1=O` [Example 8-228], the IC50 was more than 100 nM. Turning to `Cn1nc2cc(N3CCOc4cc(C(=O)N5CC=CCC5)cnc43)ccn2c1=O` [Example 8-229], the IC50 was less than 10 nM. Take `Cn1nc2cc(N3CCOc4cc(C(=O)N5CCC(O)CC5)cnc43)ccn2c1=O` [Example 8-230]: the IC50 was less than 10 nM. `O=C(O)c1ccc(N2CCOc3c2ccc(C(=O)N2CCCCC2)c3C2CC2)cc1` [Example 9-1, 4-(8-Cyclopropyl-7-(piperidine-1-carbonyl)-2,3-dihydro-4H-benzo[b][1,4]oxazin-4-yl)benzoic Acid]: the IC50 was less than 10 nM. On to `CC(C)(O)c1ccc(N2CCOc3cc(C(=O)N4CCCCC4)ccc32)cc1` [Example 10-1, (4-(4-(2-Hydroxypropan-2-yl)phenyl)-3,4-dihydro-2H-benzo[b][1,4]oxazin-7-yl)(piperidin-1-yl)methanone], for which the IC50 was less than 10 nM. As to `CC(C)(O)c1ccc(N2CCOc3c2ccc(C(=O)N2CCCCC2)c3Cl)cc1` [Example 10-2], the IC50 was less than 10 nM. Turning to `COC(=O)c1nc2ccc(N3CCOc4cc(C(=O)N5CCCCC5)cnc43)cc2s1` [Example 11-3], the IC50 is less than 10 nM. For the compound `Cn1nc2cc(N3CCOc4cc(C(=O)N5CCCCC5)cnc43)cc(-n3ccnc3)n2c1=O` [Example 11-4], the IC50 lay within 10 to 100 nM. For `COC(=O)c1ccc2nc(N3CCOc4cc(C(=O)N5CCCCC5)cnc43)cn2c1` [Example 11-5], the IC50 is more than 100 nM. `COC(=O)c1ccc2cc(N3CCOc4cc(C(=O)N5CCCCC5)cnc43)nn2c1` [Example 11-6]: the IC50 was less than 10 nM. For the compound `O=C(c1cnc2c(c1)OCCN2c1ccc2c(=O)[nH]oc2c1)N1CCCCC1` [Example 14-1], the IC50 was less than 10 nM. On to `O=C1NCc2cc(N3CCOc4cc(C(=O)N5CCCCC5)cnc43)ccc21` [Example 14-2], for which the IC50 was less than 10 nM.

`O=C1NCc2cc(N3CCOc4cc(C(=O)N5CCC(F)(F)CC5)ccc43)ccc21` [Example 14-3]: the IC50 was less than 10 nM. As to `O=C1NCc2cc(N3CCCc4cc(C(=O)N5CCCCC5)cnc43)ccc21` [Example 14-4], the IC50 was less than 10 nM.

For `O=C1NCc2cc(N3CCCc4cc(C(=O)N5CCC(F)(F)CC5)cnc43)ccc21` [Example 14-5], the IC50 was less than 10 nM. For `O=C1NCc2cc(N3CCOc4cc(C(=O)N5CCC(F)(F)CC5)cnc43)ccc21` [Example 14-6], the IC50 was less than 10 nM. Consider `O=C(c1cnc2c(c1)CCCN2c1ccc(-c2nn[nH]n2)cc1)N1CCCCC1` [Example 14-7], for which the IC50 was less than 10 nM.

Consider `O=C(c1cnc2c(c1)OCCN2c1ccc2c(=O)[nH]ncc2c1)N1CCCCC1` [Example 14-8], for which the IC50 is less than 10 nM.

Regarding `O=C1NCc2cc(N3CCOc4cc(C(=O)N5CCCCC5)cnc43)ncc21` [Example 14-9], the IC50 was less than 10 nM. As to `O=C(c1cnc2c(c1)OCCN2c1ccc(-c2nnn[nH]2)cc1)N1CCCCC1` [Example 14-10], the IC50 is less than 10 nM. In the case of `CC(C)(O)Cn1nc2cc(N3CCOc4cc(C(=O)N5CCCCC5)cnc43)ccn2c1=O` [Example 15-1, 2-(2-Hydroxy-2-methylpropyl)-7-(7-(piperidine-1-carbonyl)-2,3-dihydro-4H-pyrido[3,2-b][1,4]oxazin-4-yl)-[1,2,4]triazolo[4,3-a]pyridin-3(2H)-one] it was less than 10 nM.

As to `CCCN(C)C(=O)c1cnc2c(c1)OCCN2c1ccn2c(=O)n(C)nc2c1` [Example 17-1, N-Methyl-4-(2-methyl-3-oxo-2,3-dihydro-[1,2,4]triazolo[4,3-a]pyridin-7-yl)-N-propyl-3,4-dihydro-2H-pyrido[3,2-b][1,4]oxazine-7-carboxamide], the IC50 was less than 10 nM.
